These results are taken from US7718688B2, “Nitrobenzindoles and their use in cancer therapy” (Auckland Uniservices Limited, priority 2004, dated 2010).

Data set [1] deals with HT29: human colon cancer cell line. In words: Proliferation IC50 assay, oxic/hypoxic, HT29. Particulars: for IC50: Homo sapiens, HT-29, 4 h exposure under aerobic conditions; for HCR (hypoxic cytotoxicity ratio) HT29: IC50(aerobic)/IC10(hypoxic); for HCR HT29: IC50(aerobic)/IC50(hypoxic). Type of data set: cell-based.
The subject of data set [2] is SKOV3: human ovarian carcinoma cell line. Put plainly: Proliferation IC50 assay, oxic/hypoxic, SKOV3. The following applies: for IC50: Homo sapiens, SK-OV-3, 4 h exposure under aerobic conditions; for HCR (hypoxic cytotoxicity ratio) SKOV3: IC50(aerobic)/IC10(hypoxic); for HCR SKOV3: IC50(aerobic)/IC50(hypoxic). The class given is cell-based.

Structures can show the parent of a compound that is named as a salt. Some results are limits rather than exact numbers.

As for `CC(=O)c1ccc2c3c(cc([N+](=O)[O-])c2c1)N(C(=O)c1cc2cc(OCCN(C)C)ccc2[nH]1)CC3CCl` (stereo not drawn) [Compound 12, 7-Acetyl-1-(chloromethyl)-3-{5-[2-(dimethylamino)ethoxy]indol-2-carbonyl}-5-nitro-1,2-dihydro-3H-benzo[e]indole], the melting point (as a rule, the temperature of the solid-liquid transition) is greater than 350 °C. Also, in data set [1] (Table 3), half-maximal inhibition (IC50) was put at 170 nM and the “HCR (hypoxic cytotoxicity ratio) HT29” value turned out to be 1.5. Besides, in data set [2] (Table 3), half-maximal inhibition (IC50) required 640 nM and the “HCR (hypoxic cytotoxicity ratio) SKOV3” value is listed as 4.0.

`CN(C)CCOc1ccc2[nH]c(C(=O)N3CC(CCl)c4c3cc(N)c3cc(C#N)ccc43)cc2c1` (stereo not drawn) [Compound 56, 5-Amino-1-(chloromethyl)-3-{5-[2-(dimethylamino)ethoxy]indol-2-carbonyl}-1,2-dihydro-3H-benzo[e]indole-7-carbonitrile]: the melting point is 250 to 255 °C (dec.). In data set [1] (Table 4), the IC50 (in general, the concentration at which inhibition is half-maximal) was 17 nM and the “HCR HT29” value came out at 2.0. Further, in data set [2] (Table 4), the IC50 is 13 nM and the “HCR SKOV3” value came to 1.1.

With `COc1cc2cc(C(=O)N3CC(CCl)c4c3cc(N)c3cc(S(N)(=O)=O)ccc43)[nH]c2c(OC)c1OC` (stereo not drawn) [Compound 59, 5-Amino-1-(chloromethyl)-3-(5,6,7-trimethoxyindol-2-carbonyl)-1,2-dihydro-3H-benzo[e]indole-7-sulfonamide], the melting point was 240 to 245 °C (dec.). For the same molecule, in data set [1] (Table 4), the IC50 amounted to 86 nM and the “HCR HT29” value is reported as 1.1. Further, in data set [2] (Table 4), the IC50 was found to be 41 nM and the “HCR SKOV3” value worked out at 1.3.

With `CN(C)CCOc1ccc2[nH]c(C(=O)N3CC(CCl)c4c3cc(N)c3cc(S(N)(=O)=O)ccc43)cc2c1` (stereo not drawn) [Compound 60, 5-Amino-1-(chloromethyl)-3-{5-[2-(dimethylamino)ethoxy]indol-2-carbonyl}-1,2-dihydro-3H-benzo[e]indole-7-sulfonamide], the melting point is 260 to 266 °C (dec.). Further, in data set [1] (Table 4), the IC50 is 35 nM and the “HCR HT29” value came out at 1.8. In data set [2] (Table 4), the IC50 is 23 nM and the “HCR SKOV3” value is given as 1.4.

`CN(C)CCOc1ccc2[nH]c(C(=O)N3CC(S(=O)(=O)NCCO)c4c3cc(N)c3c(CCl)cccc43)cc2c1` (stereo not drawn) [Compound 62, 5-Amino-6-(chloromethyl)-3-{5-[2-(dimethylamino)ethoxy]indol-2-carbonyl}-N-(2-hydroxyethyl)-1,2-dihydro-3H-benzo[e]indole-1-sulfonamide] had a melting point of 225 to 230 °C. For the same molecule, in data set [1] (Table 4), inhibition was half-maximal at 94 nM (IC50) and the “HCR HT29” value is listed as 1.0. In data set [2] (Table 4), the IC50 was found to be 34 nM and the “HCR SKOV3” value is recorded as 1.1.

Consider `COC(=O)c1ccc2c3c(cc([N+](=O)[O-])c2c1)N(C(=O)c1cc2cc(OC)c(OC)c(OC)c2[nH]1)CC3CCl` (stereo not drawn) [Compound 13, Methyl 1-(chloromethyl)-3-(5,6,7-trimethoxyindol-2-carbonyl)-5-nitro-1,2-dihydro-3H-benzo[e]indole-7-carboxylate], for which the melting point is 256 to 257 °C. In data set [1] (Table 3), the IC50 is 1900 nM and the “HCR (hypoxic cytotoxicity ratio) HT29” value came out at 3.2. Further, in data set [2] (Table 3), the IC50 came to 1100 nM and the “HCR (hypoxic cytotoxicity ratio) SKOV3” value is reported as 4.0.

`CNS(=O)(=O)c1ccc2c3c(cc(N)c2c1)N(C(=O)c1cc2cc(OCCN(C)C)ccc2[nH]1)CC3CCl` (stereo not drawn) [Compound 61, 5-Amino-1-(chloromethyl)-3-{5-[2-(dimethylamino)ethoxy]indol-2-carbonyl}-N-methyl-1,2-dihydro-3H-benzo[e]indole-7-sulfonamide]: the melting point was 260 to 265 °C (dec.). Besides, in data set [1] (Table 4), it took 24 nM to reach half-maximal inhibition (IC50) and the “HCR HT29” value is reported as 1.2. Further, in data set [2] (Table 4), the IC50 came out at 20 nM and the “HCR SKOV3” value is 1.8.

For the molecule `COc1cc2cc(C(=O)N3CC(CCl)c4c3cc([N+](=O)[O-])c3ccc(S(N)(=O)=O)cc43)[nH]c2c(OC)c1OC` (stereo not drawn) [Compound 48, 1-(Chloromethyl)-5-nitro-3-(5,6,7-trimethoxyindol-2-carbonyl)-1,2-dihydro-3H-benzo[e]indole-8-sulfonamide], the melting point is 264 to 266 °C (dec.). Besides, in data set [1] (Table 3), it took 24000 nM to reach half-maximal inhibition (IC50) and the “HCR (hypoxic cytotoxicity ratio) HT29” value is reported as 1.9. In data set [2] (Table 3), 12000 nM corresponded to half-maximal inhibition (IC50) and the “HCR (hypoxic cytotoxicity ratio) SKOV3” value is on record as 2.6.

`COc1ccc(/C=C/C(=O)N2CC(CCl)c3c2cc([N+](=O)[O-])c2cc(S(=O)(=O)NCCO)ccc32)cc1` (stereo not drawn) [Compound 37, 1-(Chloromethyl)-N-(2-hydroxyethyl)-3-[(E)-4-methoxycinnamoyl]-5-nitro-1,2-dihydro-3H-benzo[e]indole-7-sulfonamide] had a melting point of 250 to 251 °C. Besides, in data set [1] (Table 3), the IC50 was determined as 4800 nM and the “HCR (hypoxic cytotoxicity ratio) HT29” value worked out at 1.3. In data set [2] (Table 3), the IC50 stood at 4700 nM and the “HCR (hypoxic cytotoxicity ratio) SKOV3” value worked out at 3.4.

In the case of `COc1cc2cc(C(=O)N3CC(CCl)c4c3cc([N+](=O)[O-])c3c([N+](=O)[O-])cccc43)[nH]c2c(OC)c1OC` (stereo not drawn) [Compound 1, 1-(Chloromethyl)-5,6-dinitro-3-(5,6,7-trimethoxyindol-2-carbonyl)-1,2-dihydro-3H-benzo[e]indole], the melting point is 278 to 279 °C. Besides, in data set [1] (Table 3), the IC50 was 18000 nM and the “HCR (hypoxic cytotoxicity ratio) HT29” value is less than 1. The molecule further returned an IC50 in data set [2] (Table 3) greater than 20000 nM.

`COc1cc2cc(C(=O)N3CC(CCl)c4c3cc([N+](=O)[O-])c3cc(S(=O)(=O)NCCO)ccc43)[nH]c2c(OC)c1OC` (stereo not drawn) [Compound 33, 1-(Chloromethyl)-N-(2-hydroxyethyl)-5-nitro-3-(5,6,7-trimethoxyindol-2-carbonyl)-1,2-dihydro-3H-benzo[e]indole-7-sulfonamide] registered a melting point of 257 to 258 °C. Also, in data set [2] (Table 3), the concentration for half-maximal inhibition (IC50) stood at 13000 nM and the “HCR (hypoxic cytotoxicity ratio) SKOV3” value is reported as 5.8.

`COc1cc2cc(C(=O)N3CC(CCl)c4c3cc(N)c3ccc(S(C)(=O)=O)cc43)[nH]c2c(OC)c1OC` (stereo not drawn) [Compound 63, 5-Amino-1-(chloromethyl)-8-(methylsulfonyl)-3-(5,6,7-trimethoxyindol-2-carbonyl)-1,2-dihydro-3H-benzo[e]indole] returned a melting point of 165 to 170 °C. Besides, in data set [1] (Table 4), the midpoint of inhibition, the IC50, lay at 25 nM and the “HCR HT29” value is 1.0. In addition, in data set [2] (Table 4), the IC50 was determined as 19 nM and the “HCR SKOV3” value was determined as 1.4.

For the molecule `CN(C)CCOc1ccc2[nH]c(C(=O)N3CC(CCl)c4c3cc(N)c3cc(C(N)=O)ccc43)cc2c1` (stereo not drawn) [Compound 55, 5-Amino-1-(chloromethyl)-3-{5-[2-(dimethylamino)ethoxy]indol-2-carbonyl}-1,2-dihydro-3H-benzo[e]indole-7-carboxamide], the melting point is 232 to 236 °C (dec.). In data set [1] (Table 4), the half-inhibitory concentration (IC50) is 61 nM and the “HCR HT29” value was 1.4. Besides, in data set [2] (Table 4), half-maximal inhibition (IC50) required 13 nM and the “HCR SKOV3” value amounted to 1.0.

Turning to `COc1cc2cc(C(=O)N3CC(CCl)c4c3cc([N+](=O)[O-])c3cc(S(C)(=O)=O)ccc43)[nH]c2c(OC)c1OC` (stereo not drawn) [Compound 23, 1-(Chloromethyl)-7-(methylsulfonyl)-5-nitro-3-(5,6,7-trimethoxyindol-2-carbonyl)-1,2-dihydro-3H-benzo[e]indole], the melting point is 296 to 297 °C (dec.). For the same molecule, in data set [1] (Table 3), inhibition was half-maximal at 14000 nM (IC50) and the “HCR (hypoxic cytotoxicity ratio) HT29” value turned out to be 2.0. In data set [2] (Table 3), the IC50 came out at 17000 nM and the “HCR (hypoxic cytotoxicity ratio) SKOV3” value was 1.9.

For `CN(C)CCOc1ccc2[nH]c(C(=O)N3CC(CCl)c4c3cc([N+](=O)[O-])c3cc([N+](=O)[O-])ccc43)cc2c1` (stereo not drawn) (as salt: HCl) [Compound 9, 1-(Chloromethyl)-3-{5-[2-(dimethylamino)ethoxy]indol-2-carbonyl}-5,7-dinitro-1,2-dihydro-3H-benzo[e]indole], the melting point lay within 263 to 264 °C.

`CN(C)CCOc1ccc2[nH]c(C(=O)N3CC(CCl)c4c3cc([N+](=O)[O-])c3cc(C#N)ccc43)cc2c1` (stereo not drawn) (as salt: HCl) [Compound 22, 1-(Chloromethyl)-3-{5-[2-(dimethylamino)ethoxy]indol-2-carbonyl}-5-nitro-1,2-dihydro-3H-benzo[e]indole-7-carbonitrile]: the melting point is greater than 300 °C.

Turning to `COc1cc2cc(C(=O)N3CC(CCl)c4c3cc([N+](=O)[O-])c3ccc(C(=O)NCCN(C)C)cc43)[nH]c2c(OC)c1OC` (stereo not drawn) (as salt: HCl) [Compound 44, 1-(Chloromethyl)-N-[2-(dimethylamino)ethyl]-5-nitro-3-(5,6,7-trimethoxyindol-2-carbonyl)-1,2-dihydro-3H-benzo[e]indole-8-carboxamide], the melting point was 228 to 229 °C (dec.).

As to `COc1cc2cc(C(=O)N3CC(CCl)c4c3cc([N+](=O)[O-])c3cc(C(=O)NCCO)ccc43)[nH]c2c(OC)c1OC` (stereo not drawn) [Compound 17, 1-(Chloromethyl)-N-(2-hydroxyethyl)-5-nitro-3-(5,6,7-trimethoxyindol-2-carbonyl)-1,2-dihydro-3H-benzo[e]-indole-7-carboxamide], the melting point is 244 to 245 °C. Also, in data set [1] (Table 3), the IC50 amounted to 5700 nM and the “HCR (hypoxic cytotoxicity ratio) HT29” value amounted to 1.7.

`CN(C)CCOc1ccc2[nH]c(C(=O)N3CC(CCl)c4c3cc([N+](=O)[O-])c3ccc(S(C)(=O)=O)cc43)cc2c1` (stereo not drawn) (as salt: HCl) [Compound 47, 1-(Chloromethyl)-3-{5-[2-(dimethylamino)ethoxy]indol-2-carbonyl}-8-(methylsulfonyl)-5-nitro-1,2-dihydro-3H-benzo[e]indole] showed a melting point greater than 300 °C.

As for `COC(=O)c1ccc2c3c(cc([N+](=O)[O-])c2c1)N(C(=O)c1cc2cc(OCCN(C)C)ccc2[nH]1)CC3CCl` (stereo not drawn) (as salt: HCl) [Compound 14, Methyl 1-(chloromethyl)-3-{5-[2-(dimethylamino)ethoxy]indol-2-carbonyl}-5-nitro-1,2-dihydro-3H-benzo[e]indole-7-carboxylate], the melting point was greater than 300 °C.
